Laboratory results as given in ChEMBL document CHEMBL1158817, “Hyrtioerectines A-C, cytotoxic alkaloids from the red sea sponge hyrtioserectus” (J Nat Prod, 2005).
≈ marks a conversion by molar mass, not a printed value.

The compounds below were run on HeLa (assay: Cytotoxicity against human HeLa cells by Fukuzawa's method).
Format: functional, cell-based
In the case of O=C(O)C(=O)c1c(-c2c[nH]c3cc(O)ccc23)ncc2[nH]c3ccc(O)cc3c12 [HYRTIOERECTINE A], the IC50 is reported as 10 µg/mL (≈ 25.8 µM).
C[C@H]1N[C@@H](C(=O)O)Cc2c1[nH]c1ccc(O)cc21 [HYRTIOERECTINE B] was tested, and the IC50 was 5 µg/mL (≈ 20.3 µM).
O=C(O)[C@H](O)Cc1c[nH]c2ccc(O)cc12 [HYRTIOERECTINE C] gave an IC50 of 4.5 µg/mL (≈ 20.3 µM).
